The numbers were not newly measured in article PMC10893631, “Receptor-based pharmacophore modeling, molecular docking, synthesis and biological evaluation of novel VEGFR-2, FGFR-1, and BRAF multi-kinase inhibitors” (BMC Chemistry, 2024), which cites them from elsewhere.

Usually Ki stands for the equilibrium dissociation constant of an inhibitor or competing ligand from its target.

The data set concerns the target T1, VEGFR-2 (Homo sapiens, UniProt P35968).
T1 construct: purchased BPS Biosciences 40325
Also noted: method as in PMID 17696416. Particulars: cited from earlier work.

T1 sequence (P35968 20-1356): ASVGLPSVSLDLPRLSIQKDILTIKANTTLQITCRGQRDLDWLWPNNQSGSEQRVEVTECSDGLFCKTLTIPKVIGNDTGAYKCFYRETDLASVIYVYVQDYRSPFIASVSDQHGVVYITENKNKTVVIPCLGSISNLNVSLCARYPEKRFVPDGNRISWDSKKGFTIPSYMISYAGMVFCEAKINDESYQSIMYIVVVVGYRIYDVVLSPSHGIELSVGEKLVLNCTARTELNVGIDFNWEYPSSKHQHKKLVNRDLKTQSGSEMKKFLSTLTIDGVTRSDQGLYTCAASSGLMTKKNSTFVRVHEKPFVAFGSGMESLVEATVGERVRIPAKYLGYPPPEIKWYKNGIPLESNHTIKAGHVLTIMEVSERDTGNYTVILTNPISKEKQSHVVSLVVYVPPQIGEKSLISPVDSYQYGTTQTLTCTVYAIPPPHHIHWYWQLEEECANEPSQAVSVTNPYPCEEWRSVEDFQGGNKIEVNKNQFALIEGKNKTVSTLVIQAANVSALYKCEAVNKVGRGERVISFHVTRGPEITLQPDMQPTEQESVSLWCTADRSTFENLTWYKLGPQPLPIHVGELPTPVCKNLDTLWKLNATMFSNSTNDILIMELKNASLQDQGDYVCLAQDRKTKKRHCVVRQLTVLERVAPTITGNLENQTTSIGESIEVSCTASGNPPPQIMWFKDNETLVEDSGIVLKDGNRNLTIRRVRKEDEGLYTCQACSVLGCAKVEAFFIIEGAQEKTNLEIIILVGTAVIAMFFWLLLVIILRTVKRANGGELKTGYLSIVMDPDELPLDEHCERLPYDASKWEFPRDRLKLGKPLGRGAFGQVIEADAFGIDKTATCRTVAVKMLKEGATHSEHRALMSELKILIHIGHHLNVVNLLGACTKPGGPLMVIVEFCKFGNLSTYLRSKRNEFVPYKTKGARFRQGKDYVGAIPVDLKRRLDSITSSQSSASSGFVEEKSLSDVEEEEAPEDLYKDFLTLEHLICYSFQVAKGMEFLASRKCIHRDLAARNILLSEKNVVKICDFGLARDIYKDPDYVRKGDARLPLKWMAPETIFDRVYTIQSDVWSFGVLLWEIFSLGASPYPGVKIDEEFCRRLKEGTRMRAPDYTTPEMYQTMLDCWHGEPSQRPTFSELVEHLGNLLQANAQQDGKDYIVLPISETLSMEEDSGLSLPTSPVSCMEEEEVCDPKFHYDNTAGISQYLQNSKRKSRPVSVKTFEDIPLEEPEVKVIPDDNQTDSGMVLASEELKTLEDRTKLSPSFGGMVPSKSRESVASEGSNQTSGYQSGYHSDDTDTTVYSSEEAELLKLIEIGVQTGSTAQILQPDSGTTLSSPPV

Regarding `CNC(=O)c1cc(Oc2ccc3[nH]c(Nc4ccc(C(F)(F)F)c(Cl)c4)nc3c2)ccn1` [II], the Ki is 8.7 nM.
